Results: PubChem BioAssay (NCI)
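Method: 48-hour compound exposure of cells in 96-well plates, five concentrations, linear interpolation of endpoints. At the GI50, growth is halved. At the TGI there is no net growth.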

Experiments:
Test in all cases: DTP human tumour cell line panel, 48 h
[1] = test system: BT-549 breast
[2] = test system: CCRF-CEM leukemia
[3] = test system: HOP-62 NSCLC
[4] = test system: HOP-92 NSCLC
[5] = test system: IGROV1 ovarian
[6] = test system: MCF7 breast
[7] = test system: NCI-H460 lung
[8] = test system: NCI-H522 lung
[9] = test system: NCI/ADR-RES ovarian
[10] = test system: OVCAR-4 ovarian

SMILES	TGI [1]	TGI [2]	TGI [3]	TGI [4]	TGI [5]	TGI [6]	TGI [7]	TGI [8]	TGI [9]	TGI [10]	GI50 [1]	GI50 [2]	GI50 [3]	GI50 [4]	GI50 [5]	GI50 [6]	GI50 [7]	GI50 [8]	GI50 [9]	GI50 [10]
CSc1c(C#N)c(N)nc2c(N=Nc3ccc(Cl)cc3)c(N)nn12	9.97 µM	5.47 µM	28.6 µM	8.64 µM	3.46 µM	4.71 µM	> 45.6 µM	22.5 µM	39 µM	6.68 µM	–	–	–	–	–	–	–	–	–	–
CCCCN1C(=O)c2c(-c3sccc3N)sc(-c3sccc3N)c2C1=O	> 88.9 µM	> 31 µM	41.5 µM	> 100 µM	> 100 µM	> 100 µM	> 100 µM	> 100 µM	> 83.2 µM	45.3 µM	–	–	–	–	–	–	–	–	–	–
O=C(CCCCCCC(=O)Nc1cccnc1)NO	> 100 µM	> 100 µM	> 100 µM	> 100 µM	> 68.9 µM	> 100 µM	> 100 µM	17.3 µM	10.1 µM	> 100 µM	–	–	–	–	–	–	–	–	–	–
CO/N=C(\C)COc1ccc2c(=O)c(-c3ccccc3)coc2c1	38.8 µM	> 100 µM	46.6 µM	43.9 µM	77.9 µM	> 100 µM	> 100 µM	79 µM	50 µM	> 100 µM	18 µM	> 100 µM	17.8 µM	17.2 µM	24.7 µM	39 µM	30.4 µM	22.2 µM	14.5 µM	40.4 µM
Brc1ccc2c([C@H]3CN[C@@H](c4c[nH]c5cc(Br)ccc45)CN3)c[nH]c2c1	24.7 µM	8.64 µM	23.8 µM	12.2 µM	8.2 µM	4 µM	4.15 µM	3.15 µM	17.1 µM	4.69 µM	–	–	–	–	–	–	–	–	–	–
Cc1ccc(O)c(-c2cc(-c3cccc(Cl)c3)c(C#N)c(N)n2)c1	> 100 µM	55.2 µM	48.2 µM	48.1 µM	24.6 µM	42.7 µM	54 µM	30 µM	90.4 µM	41.3 µM	–	–	–	–	–	–	–	–	–	–
NCCCNC1(c2cc3ccccc3s2)CCCCC1	27.8 µM	13 µM	27.8 µM	25.5 µM	24.3 µM	12.2 µM	4.06 µM	9.13 µM	30.4 µM	25.5 µM	–	–	–	–	–	–	–	–	–	–
Cc1cc(C)c2c(n1)S(=O)(=O)N(CCCN1CCN(c3cccc(C(F)(F)F)c3)CC1)c1c-2nn(C)c1C	> 100 µM	> 100 µM	> 100 µM	> 100 µM	> 100 µM	> 100 µM	> 100 µM	> 100 µM	> 100 µM	> 100 µM	–	–	–	–	–	–	–	–	–	–
CC1OC2(CC(OCc3ccccc3)C1OCc1ccccc1)OCCO2 (stereo not given)	> 100 µM	> 100 µM	> 100 µM	> 100 µM	> 100 µM	> 100 µM	> 100 µM	> 100 µM	> 100 µM	> 100 µM	–	–	–	–	–	–	–	–	–	–
Cc1cc(C)nc(SC(C)C(=O)N/N=C/c2ccc(OCc3ccccc3)cc2)n1 (stereo not given)	> 100 µM	> 100 µM	> 100 µM	> 100 µM	> 100 µM	90.5 µM	> 100 µM	> 100 µM	> 100 µM	> 100 µM	–	–	–	–	–	–	–	–	–	–
O=C1CCCC/C1=C\c1ccc(Br)cc1	28.7 µM	94.4 µM	42.8 µM	35.1 µM	38.3 µM	7.4 µM	98.2 µM	31.1 µM	12.2 µM	46.7 µM	–	–	–	–	–	–	–	–	–	–
COc1ccc(/C=C2\N=C(c3ccccc3)N(N=C3NC(=O)CC(=O)N3)C2=O)cc1	> 100 µM	> 100 µM	> 100 µM	> 100 µM	> 100 µM	> 100 µM	> 100 µM	> 100 µM	> 100 µM	> 100 µM	–	–	–	–	–	–	–	–	–	–
CC(C)[Si](OC1=CCC[C@H]2NC(=O)[C@@H](Cc3ccccc3)[C@@]12C)(C(C)C)C(C)C	24.1 µM	10.2 µM	24.2 µM	6.67 µM	26.7 µM	13.4 µM	12.4 µM	17.4 µM	21.7 µM	19.7 µM	–	–	–	–	–	–	–	–	–	–
COc1ccc(OC)c(CC2CCc3nc(N)nc(N)c3C2)c1 (stereo not given)	6.22 µM	> 100 µM	24.4 µM	77.4 µM	28.1 µM	32 µM	> 46 µM	25 µM	> 32.4 µM	> 100 µM	–	–	–	–	–	–	–	–	–	–
CSCCCNC(=O)c1csc(-c2csc(C(CNC(=O)OC(C)(C)C)CNC(=O)OC(C)(C)C)n2)n1	> 100 µM	44 µM	> 100 µM	> 100 µM	> 100 µM	> 100 µM	> 100 µM	94.5 µM	> 100 µM	> 100 µM	–	–	–	–	–	–	–	–	–	–
